Read-outs that look alike come from different tables or passages of the source.
Assays:
[1] = Toxicity analysis by uptake of neutral red dye in 2.2.15 cell cultures; settings: human, Cytotoxicity IC50, Table 2; Hep G-2 (2.2.15) cells
Protocol: (§1) Toxicity analyses were performed in order to assess whether any observed antiviral effects were due to a general effect on cell viability. The method used was based on the uptake of neutral red dye, a standard and widely used assay for cell viability in a variety of virus-host systems, including HSV (herpes simplex virus) and HIV. The test compounds were used in the form of 40 mM stock solutions in DMSO (frozen on dry ice). Daily aliquots of the test samples were made and frozen at −20° C. so that each individual aliquot would be subjected to a single freeze-thaw cycle. The daily test aliquots were thawed, suspended into culture medium at room temperature and immediately added to the cell cultures. The compounds were tested at 0.01 to 10 μM for antiviral activity. The compounds were tested for toxicity at concentrations from 1 to 300 μM.
(§2) Toxicity analyses were performed in 96-well flat bottomed tissue culture plates. Cells for the toxicity analyses were cultured and treated with test compounds with the same schedule as used for the antiviral evaluations. Each compound was tested at 4 concentrations, each in triplicate cultures. Uptake of neutral red dye was used to determine the relative level of toxicity. The absorbance of internalized dye at […] (A510) was used for the quantitative analysis. Values are presented as a percentage of the average A510 values (± standard deviations) in 9 separate cultures of untreated cells maintained on the same 96-well plate as the test compounds.

Hepatitis B virus = assay: Inhibition of HBV replication in transfected HepG-2 (2.2.15) cells (HBV virion DNA and replicative intermediates, blot hybridization); type: cell-based; settings: for Inhibition of HBV replication (depression of HBV virion DNA and HBV RI), in words: 2.2.15 cells; for Selectivity Index IC50/EC90 RI: cytotoxicity IC50 / RI EC90; for Selectivity Index IC50/EC90 Virion: cytotoxicity IC50 / virion EC90
Protocol: The assay used herein to evaluate the ability of the disclosed compounds to inhibit the replication of HBV is described in detail in Korba and Gerin, Antiviral Res. 19: 55-70 (1992). […] The toxicity and anti-HBV activity of (−)-β-L-2-hydroxymethyl-5-(5-fluorocytosin-1-yl)-1,3-oxathiolane ((−)-β-L-FTC) and β-D-2′,3′-dideoxycytidine (β-D-ddC) are included as controls. The other compounds disclosed herein can be evaluated similarly.
The antiviral evaluations were performed on two separate passages of cells, two cultures per passage (4 cultures total). All wells, in all plates, were seeded at the same density and at the same time.
(Korba and Gerin, Antiviral Res. 19: 55-70, 1992). The levels of integrated HBV DNA in each cellular DNA preparation (which remain constant on a per cell basis in these experiments) were used to calculate the levels of intracellular HBV DNA forms, thereby eliminating technical variations inherent in the blot hybridization assays.
as §1

[2] = system: 2.2.15 cells (HepG2 cells transformed with hepatitis virion); assay: Toxicity analysis by uptake of neutral red dye in 2.2.15 cell cultures; settings: read-out: Cytotoxity IC50 ± SD; Table 1; neutral red dye uptake; 2.2.15 cells
Protocol: as §1, §2

[3] = target: woodchuck hepatitis virus DNA polymerase (Woodchuck hepatitis B virus, UniProt P03160); assay: Inhibition of woodchuck hepatitis virus DNA polymerase by triphosphates; type: biochemical; settings: read-out: WHB DNA Pol IC50
human DNA polymerase β = human DNA polymerase β (Homo sapiens, UniProt P06746); assay: Inhibition of human DNA polymerase β by triphosphates; type: biochemical; settings: read-out: DNA Pol β Ki
human DNA polymerase α = target: T1, human DNA polymerase α (Homo sapiens, UniProt P09884); assay: Inhibition of human DNA polymerase α by triphosphates; type: biochemical; settings: read-out: DNA Pol α Ki
T1 sequence (P09884 1-1462): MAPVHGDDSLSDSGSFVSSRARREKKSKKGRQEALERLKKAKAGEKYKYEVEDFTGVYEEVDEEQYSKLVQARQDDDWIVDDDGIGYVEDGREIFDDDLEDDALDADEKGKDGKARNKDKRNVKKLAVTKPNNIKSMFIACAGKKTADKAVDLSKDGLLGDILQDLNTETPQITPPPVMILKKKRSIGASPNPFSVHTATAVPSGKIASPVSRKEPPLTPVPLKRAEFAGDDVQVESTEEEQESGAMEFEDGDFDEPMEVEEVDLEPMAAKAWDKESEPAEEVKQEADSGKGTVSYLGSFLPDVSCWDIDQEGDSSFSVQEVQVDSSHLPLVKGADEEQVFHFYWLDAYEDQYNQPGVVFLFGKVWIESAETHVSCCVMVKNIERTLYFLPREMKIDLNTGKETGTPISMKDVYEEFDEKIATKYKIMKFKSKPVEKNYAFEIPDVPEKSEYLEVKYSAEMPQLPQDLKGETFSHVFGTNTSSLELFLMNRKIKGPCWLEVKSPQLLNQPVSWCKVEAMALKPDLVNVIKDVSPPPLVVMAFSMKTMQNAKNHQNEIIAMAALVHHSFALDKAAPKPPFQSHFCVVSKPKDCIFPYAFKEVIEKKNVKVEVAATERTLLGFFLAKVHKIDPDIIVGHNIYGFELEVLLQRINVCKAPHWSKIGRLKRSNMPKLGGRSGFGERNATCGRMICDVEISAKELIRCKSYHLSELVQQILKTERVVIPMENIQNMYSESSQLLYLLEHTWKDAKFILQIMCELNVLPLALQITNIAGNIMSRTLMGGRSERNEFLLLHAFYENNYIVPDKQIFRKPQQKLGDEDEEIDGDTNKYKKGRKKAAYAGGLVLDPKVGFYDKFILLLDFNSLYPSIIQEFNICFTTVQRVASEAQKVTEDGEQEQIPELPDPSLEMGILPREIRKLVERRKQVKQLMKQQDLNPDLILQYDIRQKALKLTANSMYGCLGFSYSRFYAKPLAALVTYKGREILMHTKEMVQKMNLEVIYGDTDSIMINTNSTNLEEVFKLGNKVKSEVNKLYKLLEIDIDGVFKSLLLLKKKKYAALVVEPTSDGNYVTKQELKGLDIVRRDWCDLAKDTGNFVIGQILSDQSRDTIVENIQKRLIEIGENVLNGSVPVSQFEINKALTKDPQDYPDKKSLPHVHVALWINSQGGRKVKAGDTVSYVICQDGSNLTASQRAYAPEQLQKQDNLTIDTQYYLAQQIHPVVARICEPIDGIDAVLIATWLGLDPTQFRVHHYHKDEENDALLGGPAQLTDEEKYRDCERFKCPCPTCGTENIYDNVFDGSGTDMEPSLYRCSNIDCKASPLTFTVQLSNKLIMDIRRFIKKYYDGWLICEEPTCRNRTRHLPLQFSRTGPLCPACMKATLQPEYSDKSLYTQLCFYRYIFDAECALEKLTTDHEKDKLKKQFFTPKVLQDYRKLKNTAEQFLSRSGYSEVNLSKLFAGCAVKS

[4] = Table 1, extracellular DNA, transfected HEPG-2 (2.2.15) cells, read-out: HBV viron EC90 ± SD
[5] = Table 1, replicative intermediates (intracellular DNA), transfected HEPG-2 (2.2.15) cells, read-out: HBV RI EC50 ± SD
[6] = Table 1, replicative intermediates (intracellular DNA), transfected HEPG-2 (2.2.15) cells, read-out: HBV RI EC90 ± SD

Sequence of woodchuck hepatitis virus DNA polymerase (P03160 whole entry): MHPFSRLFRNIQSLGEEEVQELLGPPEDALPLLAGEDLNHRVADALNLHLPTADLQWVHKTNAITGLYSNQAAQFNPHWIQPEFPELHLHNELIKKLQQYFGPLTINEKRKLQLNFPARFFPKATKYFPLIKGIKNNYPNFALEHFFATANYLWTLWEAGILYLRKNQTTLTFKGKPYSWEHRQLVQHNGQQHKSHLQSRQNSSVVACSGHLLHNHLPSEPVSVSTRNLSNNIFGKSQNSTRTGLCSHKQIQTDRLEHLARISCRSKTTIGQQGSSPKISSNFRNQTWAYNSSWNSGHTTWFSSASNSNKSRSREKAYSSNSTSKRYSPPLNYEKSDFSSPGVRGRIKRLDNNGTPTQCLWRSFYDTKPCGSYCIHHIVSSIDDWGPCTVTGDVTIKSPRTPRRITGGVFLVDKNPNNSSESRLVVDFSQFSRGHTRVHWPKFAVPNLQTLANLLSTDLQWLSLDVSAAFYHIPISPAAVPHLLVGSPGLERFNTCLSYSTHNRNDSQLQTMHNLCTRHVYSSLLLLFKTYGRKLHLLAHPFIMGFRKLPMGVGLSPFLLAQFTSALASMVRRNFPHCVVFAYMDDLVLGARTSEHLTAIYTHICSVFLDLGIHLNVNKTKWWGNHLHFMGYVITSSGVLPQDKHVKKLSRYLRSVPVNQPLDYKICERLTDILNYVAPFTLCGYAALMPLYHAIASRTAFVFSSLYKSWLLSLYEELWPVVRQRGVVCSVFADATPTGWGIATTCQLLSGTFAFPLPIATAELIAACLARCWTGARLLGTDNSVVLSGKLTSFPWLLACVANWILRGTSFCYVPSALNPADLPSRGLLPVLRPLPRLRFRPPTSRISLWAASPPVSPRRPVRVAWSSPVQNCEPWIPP

Structure (SMILES)	IC50 [2] [µM]	Inhibition of HBV replication (depression of HBV virion DNA and HBV RI), in words (Hepatitis B virus)	Selectivity Index IC50/EC90 RI (Hepatitis B virus; Table 1)	Selectivity Index IC50/EC90 Virion (Hepatitis B virus; Table 1)	EC90 (Hepatitis B virus; [4]) [µM]	EC50 (Hepatitis B virus; [5]) [µM]	EC90 (Hepatitis B virus; [6]) [µM]	IC50 [3] [µM]	Ki (human DNA polymerase β) [µM]	Ki (human DNA polymerase α) [µM]	other results
Cc1cn([C@@H]2CC(N=[N+]=[N-])[C@H](CO)O2)c(=O)[nH]c1=O (stereo partly drawn) [β-L-AZT, 1-(3-Azido-2-3-dideoxy-β-L-erythro-pentofuranosyl) thymine]											IC50 [1]: 1000 µM; EC50 (Hepatitis B virus; Hepatitis B virus, HepG2 2.2.15, read-out: HBV RI EC50, Table 2, replicative intermediates (intracellular DNA), transfected Hep G-2 (2.2.15) cells): > 10 µM; EC50 (Hepatitis B virus; Hepatitis B virus, HepG2 2.2.15, read-out: HBV Virion EC50, Table 2, extracellular DNA, transfected Hep G-2 (2.2.15) cells): > 10 µM
Nc1nc(=O)n([C@@H]2CC[C@H](CO)O2)cc1F [β-L-FDDC, 2′,3′-Dideoxy-β-L-5-fluorocytidine]	438 ± 57	potent inhibitors of HBV replication	91	1,460	0.3 ± 0.03	2.8 ± 0.4	4.8 ± 0.6				
Nc1ccn([C@@H]2CC[C@H](CO)O2)c(=O)n1 [β-L-DDC, 2′,3′-Dideoxy-β-L-cytidine]	493 ± 64	potent inhibitors of HBV replication	274	448	1.1 ± 0.2	0.107 ± 0.012	1.8 ± 0.2				EC50 (Hepatitis B virus; Table 1, extracellular DNA, transfected HEPG-2 (2.2.15) cells, read-out: HBV viron EC50 ± SD): 0.033 ± 0.003 µM
Nc1nc(=O)n([C@@H]2CC[C@H](COP(=O)(O)OP(=O)(O)OP(=O)(O)O)O2)cc1F [β-L-5FDDCTP]								2	> 100	> 100	
Nc1ccn([C@@H]2CS[C@H](COP(=O)(O)OP(=O)(O)OP(=O)(O)O)O2)c(=O)n1 [Compound 3-TC-TP, reference compound]								1	> 100	> 100	
Cc1cn([C@@H]2C[C@@H](N=[N+]=[N-])[C@H](COP(=O)(O)OP(=O)(O)OP(=O)(O)O)O2)c(=O)[nH]c1=O [β-L-AZTPP]								0.2	> 100	> 100	

Reference: patent US7468357B2, “Nucleosides with anti-hepatitis B virus activity” (Emory University, priority 1994, dated 2008)
